Measurements reported in patent US20090181948A1, “DIAMINE DERIVATIVE” (KYOWA HAKKO KOGYO CO., LTD., priority 2005, published 2009).

Assays:
histamine H3 receptor [1] = target: T1, histamine H3 receptor (Rattus norvegicus, UniProt Q9QYN8); test: Inhibitory effect on histamine release suppressive action of histamine H3 receptor agonist (Nα-methylhistamine) in rat forebrain synaptosomes; type: biochemical; details: 1 μmol/L test compound and 1 μmol/L Nα-methylhistamine, potassium 30 mmol/L stimulation, read-out: Inhibition ratio of the [3H]-histamine release suppressive action of Nα-methylhistamine
T1 construct: from tissue; host or cells: rat striatum (Sprague-Dawley, male, 6 weeks), membrane homogenate
Procedure: To the forebrains of Sprague-Dawley male rats (6 to 8 weeks of age), a 30-fold volume of a 0.32 mol/L aqueous sucrose solution was added and the forebrains were homogenized. The resulting homogenate was centrifuged (1,000×g, 4° C., 10 min), and to the obtained supernatant, an equivalent volume of Krebs-Ringer solution [120 mmol/L sodium chloride, 0.8 mmol/L potassium chloride, 2.6 mmol/L calcium chloride, 0.67 mmol/L magnesium sulfate, 1.2 mmol/L potassium dihydrogen phosphate, 27.5 mmol/L sodium bicarbonate, 10 mmol/L glucose (pH 7.3)] was added, and the resulting mixture was centrifuged (10,000×g, 4° C., 15 min). To the obtained precipitate, a 15-fold volume of Krebs-Ringer solution was added to suspend the precipitate. Then, the concentration of protein in the resulting tissue homogenate (synaptosomes) was measured and used for a test.
To the synaptosomes (300 μg in terms of protein amount) prepared by the above-described method, a [^3H]-histidine solution [final concentration: […] (740 kBq)/mL]: 6 μl of a 37 MBq/mL (specific activity: […]) solution] was added, and the total volume was adjusted to 300 μL with Krebs-Ringer solution. Then, the resulting mixture was incubated at 37° C. for 30 minutes and centrifuged (10,000×g, 25° C., 3 min). To the resulting precipitate (synaptosomes), 300 μL of Krebs-Ringer solution was added, and the mixture was incubated at 37° C. for 5 minutes and centrifuged (10,000×g, 25° C., 3 min). This procedure was repeated 5 times, whereby washing of synaptosomes was carried out. The resulting synaptosomes were suspended in 100 μL of Krebs-Ringer solution, and the resulting suspension was used for the following procedure.
A test compound and N^α-methylhistamine were separately dissolved in Krebs-Ringer solution to give a concentration of 20 μmol/L (the resulting mixtures were referred to as a test compound solution and a N^α-methylhistamine solution, respectively). To 100 μL of the above-described suspended synaptosomes (300 μg in terms of protein amount), 140 μL of Krebs-Ringer solution was added. Then, 30 μL of the test compound solution and 30 μL of the N^α-methylhistamine solution were added thereto, and the resulting mixture was incubated at 37° C. for 2 minutes. Then, an equivalent volume of a stimulating solution [64 mmol/L sodium chloride, 56.8 mmol/L potassium chloride, 2.6 mmol/L calcium chloride, 0.67 mmol/L magnesium sulfate, 1.2 mmol/L potassium dihydrogen phosphate, 27.5 mmol/L sodium bicarbonate, 10 mmol/L glucose (pH 7.3)] (final potassium concentration: 30 mmol/L) was added, and the resulting mixture was incubated at 37° C. for 2 minutes to release [^3H]-histamine. The reaction mixture was centrifuged (10,000×g, 25° C., 3 min), and the obtained supernatant was passed through Amberlite CG-50 column (250 μL), and the non-adsorbed fractions were discarded. Then, 2 mL of 50 mmol/L [[…]]/hydrochloric acid (HCl) (pH 7.5) (Tris) was passed through the column 3 times, and 2 mL of distilled water, and 1.5 mL of a 0.2 mol/L aqueous sodium hydroxide solution were passed through the column in this order, and the eluted fractions were discarded. Then, 2 mL of a 0.2 mol/L aqueous sodium hydroxide solution was passed through the column, and the eluted fraction was recovered in a scintillation vial. Then, 8 mL of Ultimagold (Perkin Elmer) was added to the recovered eluted solution, and the radioactivity ([^3H]-histamine) was measured using a liquid scintillation counter. The inhibitory action of the test compound on the histamine release suppressive action of N^α-methylhistamine was evaluated by obtaining the inhibition ratio to the histamine release suppressive action in the presence of 1 μmol/L No-methylhistamine and 1 μmol/L of the test compound. The inhibition ratio of the [^3H]-histamine release suppressive action was calculated using the following Equation (2). […]

histamine H3 receptor [2] = target: T1, histamine H3 receptor; test: Histamine H3 receptor binding assay ([3H]-Nα-methylhistamine binding to rat striatum homogenate); details: 1 μmol/L test compound; [3H]-Nα-methylhistamine 1 nmol/L; striata of Sprague-Dawley male rats, 25° C., 1 hour; read-out: Inhibition ratio of [3H]-Nα-methylhistamine binding
Outline: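 Rat striatum membranes (20 μg protein) incubated with [3H]-Nα-methylhistamine 1 nmol/L in 50 mmol/L Tris/HCl pH 7.4, 5 mmol/L EDTA, 1 hour at 25° C; bound ligand by filtration and scintillation counting. Nonspecific binding defined with 10 μmol/L thioperamide; % inhibition reported at 1 μmol/L compound.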

T1 sequence (Q9QYN8 whole entry): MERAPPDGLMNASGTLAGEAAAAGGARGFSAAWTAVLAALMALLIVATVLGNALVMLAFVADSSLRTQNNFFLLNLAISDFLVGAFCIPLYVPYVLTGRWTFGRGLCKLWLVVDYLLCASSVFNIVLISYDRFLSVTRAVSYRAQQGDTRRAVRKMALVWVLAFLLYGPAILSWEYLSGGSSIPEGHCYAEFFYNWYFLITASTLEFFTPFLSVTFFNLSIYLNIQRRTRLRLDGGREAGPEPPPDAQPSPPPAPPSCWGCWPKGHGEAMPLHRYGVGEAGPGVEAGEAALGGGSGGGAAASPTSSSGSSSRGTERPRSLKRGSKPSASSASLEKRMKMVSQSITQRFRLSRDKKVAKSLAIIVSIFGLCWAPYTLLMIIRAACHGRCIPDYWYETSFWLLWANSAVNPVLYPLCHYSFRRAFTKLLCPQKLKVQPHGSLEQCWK

| SMILES | inhibition at 1 µM (histamine H3 receptor [1]) | melting point | inhibition at 1 µM (histamine H3 receptor [2]) |
| --- | --- | --- | --- |
| CN(CCCN1CCCCC1)C(=C(C#N)C#N)N1CCC(N2CCCCC2)CC1 [Compound 161, {[N-methyl-N-(3-piperidinopropyl)amino](4-piperidinopiperidino)methylene}malononitrile] | ≥ 70% | 104 to 105 °C | ≥ 80% |
| CN(CCCN1CCOCC1)C(=C(C#N)C#N)N1CCC(N2CCCCC2)CC1 [Compound 166] | ≥ 70% | 104 to 106 °C | ≥ 80% |
| N#CC(C#N)=C1N(CCCN2CCCCC2)CCN1C1CCN(C2CC2)CC1 [Compound 226, [1-(1-Cyclopropylpiperidin-4-yl)-3-(3-piperidinopropyl)imidazolidin-2-ylidene]malononitrile] | ≥ 70% | 104 to 105 °C | ≥ 80% |
| CC1CCCN1CCN1CCN(CCCN2CCCCC2)C1=C(C#N)C#N (stereo not drawn) [Compound 57, {1-[2-(2-Methylpyrrolidin-1-yl)ethyl]-3-(3-piperidinopropyl)imidazolidin-2-ylidene}malononitrile] | ≥ 70% | 84 to 86 °C | ≥ 80% |
| N#CC(C#N)=C(NCCCN1CCOCC1)N1CCC(N2CCCCC2)CC1 [Compound 165, [(4-Piperidinopiperidino)(3-morpholinopropylamino)methylene]malononitrile] | ≥ 70% | 77 to 80 °C | ≥ 80% |
| C[C@H]1CCCN1CCCN1CCN(CCCN2CCC[C@@H]2C)C1=C(C#N)C#N [Compound 115, {1,3-Bis[3-((S)-2-methylpyrrolidin-1-yl)propyl]imidazolidin-2-ylidene}malononitrile] | ≥ 70% | 79 to 80 °C | ≥ 80% |
| CC(C)N1CCC(N2CCN(CCCN3CCC(=O)CC3)C2=C(C#N)C#N)CC1 [Compound 233, {1-(1-Isopropylpiperidin-4-yl)-3-[3-(4-oxopiperidino)propyl]imidazolidin-2-ylidene}malononitrile] | ≥ 70% | 103 to 105 °C | ≥ 80% |
| CN(CCN1CCCCC1)C(=C(C#N)C#N)N1CCC(N2CCCCC2)CC1 [Compound 144, {[Methyl(2-piperidinoethyl)amino](4-piperidinopiperidino)methylene}malononitrile] | ≥ 70% | 109 to 111 °C | ≥ 80% |
| CC(C)N1CCC(N(C)C(=C(C#N)C#N)N2CCC(N3CCCCC3)CC2)CC1 [Compound 176, {[N-(1-isopropylpiperidin-4-yl)-N-methylamino](4-piperidinopiperidino)methylene}malononitrile] | ≥ 70% | 129 to 130 °C | ≥ 80% |
| CC(C)N1CCC(N2CCN(CCCN3C[C@@H](C)O[C@@H](C)C3)C2=C(C#N)C#N)CC1 [Compound 234, {3-[3-(Cis-2,6-dimethylmorpholino)propyl]-1-(1-isopropylpiperidin-4-yl)imidazolidin-2-ylidene}malononitrile] | ≥ 70% | 117 to 118 °C | ≥ 80% |
| C[C@H]1CCCN1CCN1CCN(CCCN2CCCCC2)C1=C(C#N)C#N [Compound 58, {1-[2-((S)-2-methylpyrrolidin-1-yl)ethyl]-3-(3-piperidinopropyl)imidazolidin-2-ylidene}malononitrile] | ≥ 70% | 95 to 96 °C | ≥ 80% |
| CC1CCCN1CCCN1CCN(CCCN2CCC[C@@H]2CO)C1=C(C#N)C#N (stereo partly drawn) [Compound 119, {1-[3-((R)-2-hydroxymethylpyrrolidin-1-yl)propyl]-3-[3-(2-methylpyrrolidin-1-yl)propyl]imidazolidin-2-ylidene}malononitrile] | ≥ 70% | 57 to 59 °C | ≥ 80% |
| N#CC(C#N)=C1N(CCCN2CCOCC2)CCN1C1CCN(C2CC2)CC1 [Compound 235, [1-(1-Cyclopropylpiperidin-4-yl)-3-(3-morpholinopropyl)imidazolidin-2-ylidene]malononitrile] | ≥ 70% | 104 to 106 °C | ≥ 80% |
| CC1CCCN1CCCN1CCN(CCCN2CCCC2C)C1=C(C#N)C#N (stereo not drawn) [Compound 65, {1,3-Bis[3-(2-methylpyrrolidin-1-yl)propyl]imidazolidin-2-ylidene}malononitrile] | ≥ 70% | 89 to 93 °C | ≥ 80% |
| C[C@H]1CCCN1CCCN1CCN(CCN2CCC[C@@H]2C)C1=C(C#N)C#N [Compound 56, {1-[2-((S)-2-methylpyrrolidin-1-yl)ethyl]-3-[3-((S) 2-methylpyrrolidin-1-yl)propyl]imidazolidin-2-ylidene}malononitrile] | ≥ 70% | 70 to 72 °C | ≥ 80% |
| CC(C)N1CCC(N2CCN(CCCN3CCSCC3)C2=C(C#N)C#N)CC1 [Compound 231, [1-(1-Isopropylpiperidin-4-yl)-3-(3-thiomorpholin-1-ylpropyl)imidazolidin-2-ylidene]malononitrile] | ≥ 70% | 124 to 125 °C | ≥ 80% |
| N#CC(C#N)=C(NCCN1CCCCC1)N1CCC(N2CCCCC2)CC1 [Compound 143, [(2-Piperidinoethylamino)(4-piperidinopiperidino)methylene]malononitrile] | ≥ 70% | 198 to 200 °C | ≥ 80% |
| CN(CCCN1CCCCC1)C(=C(C#N)C#N)N1CCC(N2CCCC2)CC1 [Compound 159, {[N-methyl-N-(3-piperidinopropyl)amino][4-(pyrrolidin-1-yl)piperidino]methylene}malononitrile] | ≥ 70% | 116 to 117 °C | ≥ 80% |
| C[C@@H]1CCCN1CCN1CCN(CCCN2CCCCC2)C1=C(C#N)C#N [Compound 193, {1-[2-((R)-2-methylpyrrolidin-1-yl)ethyl]-3-(3-piperidinopropyl)imidazolidin-2-ylidene}malononitrile] | ≥ 70% | 89 to 90 °C | ≥ 80% |
| CC(C)N1CCC(N(C)C(=C(C#N)C#N)N2CCC(CN3CCCC3C)CC2)CC1 (stereo not drawn) [Compound 181, {[N-(1-isopropylpiperidin-4-yl)-N-methylamino][4-(2-methylpyrrolidin-1-ylmethyl)piperidino]methylene}malononitrile] | ≥ 70% | 138 to 140 °C | ≥ 80% |
| CC1CCCN1CCCN1CCN(CCN2CCCC2C)C1=C(C#N)C#N (stereo not drawn) [Compound 11, {1-[2-(2-Methylpyrrolidin-1-yl)ethyl]-3-[3-(2-methylpyrrolidin-1-yl)propyl]imidazolidin-2-ylidene}malononitrile] | ≥ 70% | 69 to 71 °C | ≥ 80% |
